Article PMC3929320 (Journal of medicinal chemistry, 2010)

Experiments:
[1] = target: T1, human kynurenine aminotransferase II (hKAT II) (Homo sapiens, UniProt Q8N5Z0); experiment: X-ray crystal structure at […] Å; format: biochemical
Target sequence in this assay (Q8N5Z0 2-425): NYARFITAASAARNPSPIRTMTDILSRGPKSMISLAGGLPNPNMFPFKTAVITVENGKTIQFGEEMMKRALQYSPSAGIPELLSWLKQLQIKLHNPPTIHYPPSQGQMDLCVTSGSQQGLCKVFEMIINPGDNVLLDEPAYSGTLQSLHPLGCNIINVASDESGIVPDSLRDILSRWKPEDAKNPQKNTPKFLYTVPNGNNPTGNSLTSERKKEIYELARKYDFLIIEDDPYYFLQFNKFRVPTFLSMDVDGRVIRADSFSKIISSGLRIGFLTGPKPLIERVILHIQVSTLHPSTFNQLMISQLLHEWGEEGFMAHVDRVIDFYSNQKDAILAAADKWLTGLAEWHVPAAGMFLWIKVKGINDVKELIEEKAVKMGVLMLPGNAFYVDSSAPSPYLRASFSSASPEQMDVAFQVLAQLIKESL

[2] = target: T1, human kynurenine aminotransferase II (hKAT II); experiment: recombinant enzyme assay, L-KYN to KYNA conversion by HPLC; format: biochemical
Target sequence in this assay (Q8N5Z0 whole entry): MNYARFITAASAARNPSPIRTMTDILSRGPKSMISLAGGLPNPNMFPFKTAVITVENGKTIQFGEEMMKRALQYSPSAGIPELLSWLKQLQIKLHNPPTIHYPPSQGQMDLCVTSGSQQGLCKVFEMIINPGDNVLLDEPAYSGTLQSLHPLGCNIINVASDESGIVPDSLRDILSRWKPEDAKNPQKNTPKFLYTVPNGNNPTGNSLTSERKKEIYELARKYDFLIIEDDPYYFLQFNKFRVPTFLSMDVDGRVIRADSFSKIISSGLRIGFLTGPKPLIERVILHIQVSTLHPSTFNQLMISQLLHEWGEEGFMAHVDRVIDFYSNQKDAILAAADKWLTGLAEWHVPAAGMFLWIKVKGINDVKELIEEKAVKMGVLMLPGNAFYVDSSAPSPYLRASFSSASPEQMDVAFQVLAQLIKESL

Structure (SMILES)	IC50 [1]	IC50 [2]
C[C@H]1COc2c(N3CCN(N)CC3)c(F)cc3c(=O)c(C(=O)O)cn1c23 [compound 1, (S)-(−)-9-(4-aminopiperazin-1-yl)-8-fluoro-3-methyl-6-oxo-2,3-dihydro-6H-1-oxa-3a-azaphenalene-5-carboxylic acid]	0.91 and 1.5 (two enantiomers) μM	
C[C@@H]1COc2c(N3CCN(N)CC3)c(F)cc3c(=O)c(C(=O)O)cn1c23 [1*, 1* (stereoisomer of BFF-122)]		0.91 and 1.5 (two enantiomers) μM
